Here are results for two molecules from patent publication US20240009219A1, “COMPOSITIONS AND METHODS USING A COMBINATION OF OLEUROPEIN AND NICOTINAMIDE RIBOSIDE FOR CELLULAR ENERGY” (SOCIETE DES PRODUITS NESTLE S.A., priority 2020, published 2024).

Molecules are shown by their SMILES.

In assay [1] the test system is myotubes differentiated from C2C12 cells. Put plainly: NAD+ measurement (NAD/NADH Quantification Kit). It counts as cell-based. Particulars: NAD+-depleted myotubes; NR 0.5 mM, Oea 10 μM; n=6. The procedure:
C2C12 cells were purchased from ATCC. C2C12 cells were seeded in 96-well plates at a density of 15 000 cells per well in DMEM high glucose (Gibco)+10% fetal calf serum. Myotubes were differentiated from C2C12 cells by growing the cells in DMEM containing 2% horse serum, for 6 days.
To obtain a condition of restrictions of NAD bioavailability, C2C12-derived myotubes were treated with 1 μM of FK866, an NAMPT inhibitor, for 3 days before experiment. Luminescence was measured at the Cytation 3 cell imaging reader (Biotek). Calibration of the luminescence data into Calcium concentration was carried out using an algorithm as described previously (Alvarez & Montero, 2002). Custom module analysis based on Excel (Microsoft) and GraphPad Prism 7.02 (GraphPad) software was used for quantification.
NAD^+ measurements were carried out using myotubes treated as previous described and quantifying with NAD/NADH Quantification Kit (Sigma-Aldrich).

Another assay relates to C. elegans. Briefly: C. elegans lifespan test. As to conditions: treated from day 1 of adulthood; NR 100 μM, Oae 200 μM, wild type N2 worms. The assay is classed as in vivo, Caenorhabditis elegans. As for the experimental part: C. elegans lifespan tests were performed using about 100 animals per condition and scored manually every other day. The experimental measurements of the effect of nicotinamide riboside, oleuropein aglycone, and the combination NR+Oae treatment were started at day 1 of wild type N2 worm adulthood, in a regimen of chronic exposure till experiments termination.

For assay [2], the system named is myotubes differentiated from C2C12 cells. Put plainly: Mitochondrial calcium measurement with mitochondrially targeted aequorin, caffeine stimulation. The assay is classed as cell-based. Particulars: NAD+-containing myotubes; Oea 10 μM, NR 0.5 mM; n=6. As for the experimental part:
C2C12 cells were purchased from ATCC. C2C12 cells were seeded in 96-well plates at a density of 15 000 cells per well in DMEM high glucose (Gibco)+10% fetal calf serum. Myotubes were differentiated from C2C12 cells by growing the cells in DMEM containing 2% horse serum, for 6 days. Mitochondrial calcium measurements were carried out using myotubes infected with the adenovirus (from Sirion biotech) expressing the mitochondrially targeted calcium sensor mitochondrial mutated aequorin (Montero et al., 2004). For aequorin reconstitution, 48 hours after infection, cells or myotubes were incubated for 2 h at room temperature (22±° C.) in standard medium (145 mM NaCl, 5 mM KCl, 1 mM MgCl2, 1 mM CaCl2, 10 mM glucose and 10 mM Hepes, pH 7.4) with 1 μM wild-type coelenterazine. Myotubes were stimulated with 5 mM of caffeine and the total calcium transition during stimulation was calculated as the area under the curve. […] Luminescence was measured at the Cytation 3 cell imaging reader (Biotek). Calibration of the luminescence data into Calcium concentration was carried out using an algorithm as described previously (Alvarez & Montero, 2002). Custom module analysis based on Excel (Microsoft) and GraphPad Prism 7.02 (GraphPad) software was used for quantification.

For `C/C=C1/C(O)OC=C(C(=O)OC)[C@H]1CC(=O)OCCc1ccc(O)c(O)c1` (mixture of isomers) [Oleuropein aglycone, oleuropein aglycone], the NAD production entry in assay [1] is “does not boosts NAD production”. Besides, the mean lifespan extension with C. elegans is given as 10%. Also, the “integrated mitochondrial calcium rise, evoked by 5 mM caffeine” value in assay [2] is on record as “activates mitochondria via mitochondrial Ca^2+ rise”.

For the molecule `NC(=O)c1ccc[n+]([C@@H]2O[C@H](CO)[C@@H](O)[C@H]2O)c1` [Nicotinamide riboside, nicotinamide riboside], the mean lifespan extension in the assay on C. elegans came out at 5%. In assay [2], the “integrated mitochondrial calcium rise, evoked by 5 mM caffeine” value was “does not boost mitochondrial Ca^2+ rise”.
